# Laboratory results reported in ChEMBL document CHEMBL4507276 (2021).
# What was measured:
# Settings in all cases: Compound concentration 1000.0 nM
# [1] = molecular target: BDNF/NT-3 growth factors receptor (Homo sapiens) (UniProt Q16620)
# [2] = molecular target: Serine/threonine-protein kinase MAK (Homo sapiens) (UniProt P20794)
# [3] = molecular target: T1, Serine/threonine-protein kinase DCLK2 (Homo sapiens) (UniProt Q8N568)
# T1 sequence (whole entry): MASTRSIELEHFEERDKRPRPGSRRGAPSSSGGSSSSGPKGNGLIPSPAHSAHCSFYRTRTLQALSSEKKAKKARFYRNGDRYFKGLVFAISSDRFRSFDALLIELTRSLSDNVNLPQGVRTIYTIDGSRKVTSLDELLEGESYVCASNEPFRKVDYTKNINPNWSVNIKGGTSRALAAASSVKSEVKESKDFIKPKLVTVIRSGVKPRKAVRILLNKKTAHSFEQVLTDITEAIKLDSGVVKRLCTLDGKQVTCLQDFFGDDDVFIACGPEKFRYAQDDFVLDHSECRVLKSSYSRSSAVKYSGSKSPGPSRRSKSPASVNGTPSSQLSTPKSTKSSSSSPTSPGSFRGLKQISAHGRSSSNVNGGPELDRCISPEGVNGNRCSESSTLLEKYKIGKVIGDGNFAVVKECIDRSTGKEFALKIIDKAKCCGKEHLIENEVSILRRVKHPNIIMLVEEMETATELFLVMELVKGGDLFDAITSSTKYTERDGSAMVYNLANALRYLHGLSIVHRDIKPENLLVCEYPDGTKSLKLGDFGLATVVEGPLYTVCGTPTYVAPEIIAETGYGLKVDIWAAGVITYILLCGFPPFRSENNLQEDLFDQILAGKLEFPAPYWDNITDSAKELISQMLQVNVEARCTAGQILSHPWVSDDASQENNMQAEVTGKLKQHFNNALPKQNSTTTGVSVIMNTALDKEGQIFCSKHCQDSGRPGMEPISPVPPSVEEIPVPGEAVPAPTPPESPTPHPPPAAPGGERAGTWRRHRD
# [4] = molecular target: Cyclin-dependent kinase 4 (Homo sapiens) (UniProt P11802)
# Chain of Cyclin-dependent kinase 4 (Homo sapiens) (P11802 whole entry): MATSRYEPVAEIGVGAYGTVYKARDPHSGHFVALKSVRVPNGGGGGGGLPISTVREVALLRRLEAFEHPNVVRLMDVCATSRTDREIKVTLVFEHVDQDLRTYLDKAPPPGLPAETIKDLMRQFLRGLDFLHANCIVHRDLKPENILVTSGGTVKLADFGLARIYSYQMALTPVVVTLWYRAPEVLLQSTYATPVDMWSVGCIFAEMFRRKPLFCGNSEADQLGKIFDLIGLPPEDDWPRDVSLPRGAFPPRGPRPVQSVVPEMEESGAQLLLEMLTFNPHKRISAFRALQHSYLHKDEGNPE
# [5] = molecular target: Leukocyte tyrosine kinase receptor (Homo sapiens) (UniProt P29376)
# Chain of Leukocyte tyrosine kinase receptor (Homo sapiens) (P29376 whole entry): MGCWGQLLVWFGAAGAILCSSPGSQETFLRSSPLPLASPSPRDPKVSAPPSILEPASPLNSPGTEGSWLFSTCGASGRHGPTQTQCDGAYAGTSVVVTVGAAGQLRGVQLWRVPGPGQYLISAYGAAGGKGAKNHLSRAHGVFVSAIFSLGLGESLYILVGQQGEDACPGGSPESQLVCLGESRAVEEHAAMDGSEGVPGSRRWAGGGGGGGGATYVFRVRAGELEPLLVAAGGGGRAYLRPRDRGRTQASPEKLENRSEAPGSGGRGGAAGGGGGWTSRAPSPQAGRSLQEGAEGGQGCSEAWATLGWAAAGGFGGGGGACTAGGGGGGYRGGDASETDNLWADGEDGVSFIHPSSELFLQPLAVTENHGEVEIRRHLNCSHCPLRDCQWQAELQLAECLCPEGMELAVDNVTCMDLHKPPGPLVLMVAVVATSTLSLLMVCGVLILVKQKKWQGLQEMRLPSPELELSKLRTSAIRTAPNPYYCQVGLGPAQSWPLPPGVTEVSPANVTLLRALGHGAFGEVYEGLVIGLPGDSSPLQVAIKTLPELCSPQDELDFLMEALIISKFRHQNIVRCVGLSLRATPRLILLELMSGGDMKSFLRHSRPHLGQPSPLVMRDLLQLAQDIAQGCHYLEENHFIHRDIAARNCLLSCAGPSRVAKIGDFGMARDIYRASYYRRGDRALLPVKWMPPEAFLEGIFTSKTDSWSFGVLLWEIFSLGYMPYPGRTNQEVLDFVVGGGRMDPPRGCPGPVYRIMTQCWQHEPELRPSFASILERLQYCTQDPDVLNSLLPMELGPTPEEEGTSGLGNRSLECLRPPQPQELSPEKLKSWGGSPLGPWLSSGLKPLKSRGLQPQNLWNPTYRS
# [6] = molecular target: Glycogen synthase kinase-3 alpha (Homo sapiens) (UniProt P49840)
# [7] = molecular target: T2, Muscle, skeletal receptor tyrosine-protein kinase (Homo sapiens) (UniProt O15146)
# T2 sequence (whole entry): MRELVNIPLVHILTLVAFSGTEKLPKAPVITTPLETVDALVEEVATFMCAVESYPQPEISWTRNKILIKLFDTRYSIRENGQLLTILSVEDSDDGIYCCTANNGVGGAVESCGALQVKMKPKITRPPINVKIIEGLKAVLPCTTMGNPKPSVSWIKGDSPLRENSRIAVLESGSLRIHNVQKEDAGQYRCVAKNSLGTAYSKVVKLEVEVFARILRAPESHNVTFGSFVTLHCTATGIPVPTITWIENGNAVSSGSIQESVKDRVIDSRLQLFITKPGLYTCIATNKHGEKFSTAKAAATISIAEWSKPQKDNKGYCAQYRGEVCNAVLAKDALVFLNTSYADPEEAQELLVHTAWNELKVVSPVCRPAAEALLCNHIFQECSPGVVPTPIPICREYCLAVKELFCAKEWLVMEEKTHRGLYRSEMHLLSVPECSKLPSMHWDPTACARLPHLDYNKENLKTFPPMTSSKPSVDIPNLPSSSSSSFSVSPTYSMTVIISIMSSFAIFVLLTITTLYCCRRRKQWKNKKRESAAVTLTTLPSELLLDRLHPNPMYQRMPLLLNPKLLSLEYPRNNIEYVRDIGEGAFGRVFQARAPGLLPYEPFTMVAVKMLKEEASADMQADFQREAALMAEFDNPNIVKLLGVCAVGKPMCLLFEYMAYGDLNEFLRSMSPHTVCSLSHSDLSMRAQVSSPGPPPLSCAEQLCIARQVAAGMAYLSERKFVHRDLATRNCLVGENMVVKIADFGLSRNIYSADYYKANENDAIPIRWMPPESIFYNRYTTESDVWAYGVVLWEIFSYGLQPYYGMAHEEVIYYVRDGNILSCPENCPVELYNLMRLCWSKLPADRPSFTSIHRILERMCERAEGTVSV
# [8] = molecular target: STE20/SPS1-related proline-alanine-rich protein kinase (Homo sapiens) (UniProt Q9UEW8)
# [9] = molecular target: Serine/threonine-protein kinase 10 (Homo sapiens) (UniProt O94804)
# [10] = molecular target: Tyrosine-protein kinase receptor UFO (Homo sapiens) (UniProt P30530)
# Chain of Tyrosine-protein kinase receptor UFO (Homo sapiens) (P30530 whole entry): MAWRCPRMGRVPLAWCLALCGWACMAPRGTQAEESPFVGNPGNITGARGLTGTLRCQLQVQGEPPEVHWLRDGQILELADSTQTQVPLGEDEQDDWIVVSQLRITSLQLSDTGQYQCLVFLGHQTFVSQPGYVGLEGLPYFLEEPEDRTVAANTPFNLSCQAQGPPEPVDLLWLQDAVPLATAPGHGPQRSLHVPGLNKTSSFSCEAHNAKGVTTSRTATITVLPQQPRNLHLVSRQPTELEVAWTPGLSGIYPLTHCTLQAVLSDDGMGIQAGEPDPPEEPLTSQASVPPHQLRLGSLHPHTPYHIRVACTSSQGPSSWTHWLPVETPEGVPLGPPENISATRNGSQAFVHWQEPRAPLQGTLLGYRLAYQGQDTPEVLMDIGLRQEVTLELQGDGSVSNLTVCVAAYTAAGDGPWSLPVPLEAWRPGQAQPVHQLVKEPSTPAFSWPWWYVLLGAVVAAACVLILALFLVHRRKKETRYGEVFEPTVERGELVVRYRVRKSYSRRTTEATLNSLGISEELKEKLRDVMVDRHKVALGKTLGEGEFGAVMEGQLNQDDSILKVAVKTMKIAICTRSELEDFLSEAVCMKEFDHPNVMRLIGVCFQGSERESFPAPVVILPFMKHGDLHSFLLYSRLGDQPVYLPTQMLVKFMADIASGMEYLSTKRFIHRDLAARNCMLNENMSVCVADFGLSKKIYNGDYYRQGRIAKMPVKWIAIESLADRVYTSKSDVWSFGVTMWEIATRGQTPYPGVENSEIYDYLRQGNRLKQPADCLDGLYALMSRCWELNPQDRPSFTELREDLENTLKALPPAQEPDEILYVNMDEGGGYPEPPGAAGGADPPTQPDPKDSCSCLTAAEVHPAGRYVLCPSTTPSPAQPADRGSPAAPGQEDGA
# [11] = molecular target: Dual specificity protein kinase CLK2 (Homo sapiens) (UniProt P49760)
# Chain of Dual specificity protein kinase CLK2 (Homo sapiens) (P49760 whole entry, looked up): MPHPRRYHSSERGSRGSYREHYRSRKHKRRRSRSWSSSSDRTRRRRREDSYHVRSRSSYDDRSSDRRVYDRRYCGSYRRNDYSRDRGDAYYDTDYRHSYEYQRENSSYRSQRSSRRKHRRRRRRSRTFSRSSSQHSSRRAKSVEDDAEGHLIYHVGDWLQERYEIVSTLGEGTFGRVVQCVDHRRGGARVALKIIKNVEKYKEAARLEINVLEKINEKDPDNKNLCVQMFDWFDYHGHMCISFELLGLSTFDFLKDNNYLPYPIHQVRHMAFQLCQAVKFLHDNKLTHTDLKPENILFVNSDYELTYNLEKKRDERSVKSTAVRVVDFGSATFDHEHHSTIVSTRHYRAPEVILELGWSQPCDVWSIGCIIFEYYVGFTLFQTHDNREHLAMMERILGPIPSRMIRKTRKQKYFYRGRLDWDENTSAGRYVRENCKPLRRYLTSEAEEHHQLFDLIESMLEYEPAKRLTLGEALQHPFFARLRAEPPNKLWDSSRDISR
# [12] = molecular target: Serine/threonine-protein kinase N2 (Homo sapiens) (UniProt Q16513)
# [13] = molecular target: Serine/threonine-protein kinase pim-3 (Homo sapiens) (UniProt Q86V86)
# [14] = tested on: Receptor-type tyrosine-protein kinase FLT3 (Homo sapiens), P36888 [R834Q]
# [15] = molecular target: Glycogen synthase kinase-3 beta (Homo sapiens) (UniProt P49841)
# Chain of Glycogen synthase kinase-3 beta (Homo sapiens) (P49841 whole entry, looked up): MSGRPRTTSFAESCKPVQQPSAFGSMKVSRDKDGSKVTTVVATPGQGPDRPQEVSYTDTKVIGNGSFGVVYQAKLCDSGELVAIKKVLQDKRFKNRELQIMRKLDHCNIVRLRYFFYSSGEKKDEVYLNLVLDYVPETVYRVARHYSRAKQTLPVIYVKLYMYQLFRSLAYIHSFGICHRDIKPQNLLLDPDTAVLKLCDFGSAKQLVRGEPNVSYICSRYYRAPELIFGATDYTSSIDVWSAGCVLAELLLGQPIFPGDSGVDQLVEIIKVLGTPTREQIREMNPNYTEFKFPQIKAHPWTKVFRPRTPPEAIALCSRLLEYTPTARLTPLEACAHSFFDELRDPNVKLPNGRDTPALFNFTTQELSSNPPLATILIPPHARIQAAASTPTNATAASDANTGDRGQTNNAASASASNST
# [16] = molecular target: Casein kinase II subunit alpha (Homo sapiens) (UniProt P68400)
# Chain of Casein kinase II subunit alpha (Homo sapiens) (P68400 whole entry, looked up): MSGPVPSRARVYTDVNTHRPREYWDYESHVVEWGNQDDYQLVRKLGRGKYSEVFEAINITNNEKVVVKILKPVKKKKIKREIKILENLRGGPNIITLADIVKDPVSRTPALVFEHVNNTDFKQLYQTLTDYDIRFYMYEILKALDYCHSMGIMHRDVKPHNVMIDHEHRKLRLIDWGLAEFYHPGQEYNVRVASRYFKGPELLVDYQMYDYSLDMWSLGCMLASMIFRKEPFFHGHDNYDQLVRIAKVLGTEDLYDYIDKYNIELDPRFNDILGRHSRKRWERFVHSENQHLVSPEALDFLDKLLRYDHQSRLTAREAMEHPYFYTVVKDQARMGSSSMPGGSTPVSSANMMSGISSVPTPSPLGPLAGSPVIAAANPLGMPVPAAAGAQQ
# [17] = molecular target: MAP kinase-interacting serine/threonine-protein kinase 2 (Homo sapiens) (UniProt Q9HBH9)
# Chain of MAP kinase-interacting serine/threonine-protein kinase 2 (Homo sapiens) (Q9HBH9 whole entry, looked up): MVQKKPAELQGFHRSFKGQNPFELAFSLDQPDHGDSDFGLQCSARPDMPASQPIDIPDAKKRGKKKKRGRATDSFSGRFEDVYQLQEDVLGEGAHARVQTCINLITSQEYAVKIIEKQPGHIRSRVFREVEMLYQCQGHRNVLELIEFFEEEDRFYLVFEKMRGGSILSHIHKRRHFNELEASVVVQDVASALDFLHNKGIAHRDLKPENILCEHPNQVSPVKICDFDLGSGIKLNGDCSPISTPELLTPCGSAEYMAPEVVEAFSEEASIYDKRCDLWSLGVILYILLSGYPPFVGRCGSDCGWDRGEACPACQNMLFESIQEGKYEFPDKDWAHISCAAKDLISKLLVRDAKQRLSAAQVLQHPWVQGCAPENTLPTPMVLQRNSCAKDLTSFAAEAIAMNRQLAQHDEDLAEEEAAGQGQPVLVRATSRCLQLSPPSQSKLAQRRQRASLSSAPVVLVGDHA
# Chain of BDNF/NT-3 growth factors receptor (Homo sapiens) (Q16620 32-822 limits assumed): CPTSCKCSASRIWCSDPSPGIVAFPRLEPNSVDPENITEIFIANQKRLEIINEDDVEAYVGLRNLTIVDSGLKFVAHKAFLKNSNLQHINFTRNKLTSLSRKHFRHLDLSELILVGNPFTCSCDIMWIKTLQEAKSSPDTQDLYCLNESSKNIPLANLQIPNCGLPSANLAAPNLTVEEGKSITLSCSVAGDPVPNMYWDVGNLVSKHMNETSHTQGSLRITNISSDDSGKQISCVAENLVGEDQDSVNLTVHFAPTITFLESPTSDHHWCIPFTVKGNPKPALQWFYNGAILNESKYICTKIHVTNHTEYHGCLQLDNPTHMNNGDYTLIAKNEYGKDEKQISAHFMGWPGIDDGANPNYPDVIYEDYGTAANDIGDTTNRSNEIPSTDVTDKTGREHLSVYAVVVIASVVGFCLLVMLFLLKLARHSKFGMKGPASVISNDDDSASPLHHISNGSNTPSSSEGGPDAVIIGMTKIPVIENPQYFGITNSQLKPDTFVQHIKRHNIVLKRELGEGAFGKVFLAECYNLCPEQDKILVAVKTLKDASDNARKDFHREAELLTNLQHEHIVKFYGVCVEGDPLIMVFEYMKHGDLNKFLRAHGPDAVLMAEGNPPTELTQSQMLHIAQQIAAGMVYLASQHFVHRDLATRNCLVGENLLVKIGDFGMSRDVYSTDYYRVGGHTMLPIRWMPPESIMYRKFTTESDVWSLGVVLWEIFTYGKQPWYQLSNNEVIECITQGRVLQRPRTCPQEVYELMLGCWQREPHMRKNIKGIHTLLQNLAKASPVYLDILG
SMILES,residual activity [1] [%],residual activity [2] [%],residual activity [3] [%],residual activity [4] [%],residual activity [5] [%],residual activity [6] [%],residual activity [7] [%],residual activity [8] [%],residual activity [9] [%],residual activity [10] [%],residual activity [11] [%],residual activity [12] [%],residual activity [13] [%],residual activity [14] [%],residual activity [15] [%],residual activity [16] [%],residual activity [17] [%]
CN(C)C(=O)Cn1cc(-c2nc(C3(c4ccc(-c5cnc(N)nc5)cc4)CC3)no2)cn1 [BI 0153],100,87,96,44,90,100,100,100,100,93,94,77,100,90,81,73,94
CN(C)C(=O)Cn1cc(-c2nc([C@@](C)(c3ccc(-c4cnc(N)nc4)cc3)C3CC3)no2)cn1 [BI 665915],81,100,91,94,89,100,100,81,89,98,96,100,96,87,100,88,88
